Molecules are shown by their SMILES. Where only a bound is given, the exact number is not on record here.

The first experiment relates to Triple negative breast cancer cell line CAL51. The experiment can be described thus: Cell Titer Glo proliferation assay, CAL51. The experiment is classed as cell-based. To be noted: Homo sapiens, CAL-51; CAL51 cell proliferation (Table 1); read-out: Act. Level. Put shortly: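 CAL51 cells grown in DMEM or RPMI1640 with 10% FBS and 2 mM L-glutamine, cultured overnight, then exposed to serially diluted compound (0.2% DMSO final) for 72 h. Viability read by Cell Titer Glo luminescence.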
(Cellular ATP, detected with luciferase, serves as a proxy for viable cell number.)
On to `COc1nc(Nc2ccc3[nH]ncc3c2C)nc2[nH]cc(-c3ccncc3)c12` [Example 414, 4-methoxy-N-(4-methyl-1H-indazol-5-yl)-5-(pyridin-4-yl)-7H-pyrrolo[2,3-d]pyrimidin-2-amine], for which the IC50 fell in the range of 1000 to 10000 nM. As for `CNC(=O)c1ccc(Nc2nc(OC(C)C)c3c(-c4ccc5nc(C)oc5c4)c[nH]c3n2)c(Cl)c1` [Example 426, 3-chloro-4-(4-isopropoxy-5-(2-methylbenzo[d]oxazol-6-yl)-7H-pyrrolo[2,3-d]pyrimidin-2-ylamino)-N-methylbenzamide], the IC50 was under 100 nM. Consider `CNC(=O)c1ccc(Nc2nc(NC3CCOCC3)c3c(-c4ccc5nc(C)oc5c4)c[nH]c3n2)c(Cl)c1` [Example 430, 3-chloro-N-methyl-4-(5-(2-methylbenzo[d]oxazol-6-yl)-4-(tetrahydro-2H-pyran-4-ylamino)-7H-pyrrolo[2,3-d]pyrimidin-2-ylamino)benzamide], for which the IC50 is under 100 nM.

Staying with this experiment, now noted: Homo sapiens, CAL-51; CAL51 cell proliferation, Cell Titer Glo; read-out: Act. Level.
Turning to `COc1cc(C(=O)NC2COC2)ccc1Nc1nc(OC)c2c(-c3ccncc3)c[nH]c2n1` [Example 347, 3-methoxy-4-(4-methoxy-5-(pyridin-4-yl)-7H-pyrrolo[2,3-d]pyrimidin-2-ylamino)-N-(oxetan-3-yl)benzamide], the IC50 is 100 to 400 nM.

Regarding `COc1cc(-c2c[nH]c3nc(Nc4ccc(C(=O)NC5COC5)cc4OC)nc(OC)c23)ccn1` [Example 389, 3-methoxy-4-(4-methoxy-5-(2-methoxypyridin-4-yl)-7H-pyrrolo[2,3-d]pyrimidin-2-ylamino)-N-(oxetan-3-yl)benzamide], the IC50 is under 100 nM.

For the compound `CNC(=O)c1ccc(-c2c[nH]c3nc(Nc4cn(C)nc4C)nc(OC4CCC4)c23)cc1` [Example 340, 4-(4-cyclobutoxy-2-(1,3-dimethyl-1H-pyrazol-4-ylamino)-7H-pyrrolo[2,3-d]pyrimidin-5-yl)-N-methylbenzamide], the IC50 was under 100 nM. Still for that read-out and setting: to `COc1cc(C(=O)NC2CN(C)C2)ccc1Nc1nc(OC2CCCC2)c2c(-c3ccc(-c4ncc[nH]4)cc3)c[nH]c2n1` [Example 361, 4-(5-(4-(1H-imidazol-2-yl)phenyl)-4-(cyclopentyloxy)-7H-pyrrolo[2,3-d]pyrimidin-2-ylamino)-3-methoxy-N-(1-methylazetidin-3-yl)benzamide] belongs 100 to 400 nM. On the same count and under the same terms, with `COc1cc(C(=O)NC2CN(C)C2)ccc1Nc1nc(O[C@H]2CCOC2)c2c(-c3ccc4nc(C)oc4c3)c[nH]c2n1` [Example 374, (S)-3-methoxy-N-(1-methylazetidin-3-yl)-4-(5-(2-methylbenzo[d]oxazol-6-yl)-4-(tetrahydrofuran-3-yloxy)-7H-pyrrolo[2,3-d]pyrimidin-2-ylamino)benzamide] the figure was under 100 nM.

In the case of `COc1cc(C(=O)N2CC2)ccc1Nc1nc(OC)c2c(-c3ccncc3)c[nH]c2n1` [Example 338, aziridin-1-yl(3-methoxy-4-(4-methoxy-5-(pyridin-4-yl)-7H-pyrrolo[2,3-d]pyrimidin-2-ylamino)phenyl)methanone], the IC50 was in the range of 400 to 1000 nM.

Turning to `CNC(=O)c1ccc(-c2c[nH]c3nc(Nc4ccc(C(=O)N5CC5)cc4OC)nc(O[C@H]4CC[C@@](C)(O)CC4)c23)cc1` [Example 336, 4-(2-(4-(aziridine-1-carbonyl)-2-methoxyphenylamino)-4-((1s,4s)-4-hydroxy-4-methylcyclohexyloxy)-7H-pyrrolo[2,3-d]pyrimidin-5-yl)-N-methylbenzamide], the IC50 was under 100 nM.

`CCn1ncc(Nc2nc(OC3CCCC3)c3c(-c4ccc5nc(C)oc5c4)c[nH]c3n2)c1Cl` [Example 385, N-(5-chloro-1-ethyl-1H-pyrazol-4-yl)-4-(cyclopentyloxy)-5-(2-methylbenzo[d]oxazol-6-yl)-7H-pyrrolo[2,3-d]pyrimidin-2-amine]: the IC50 lay within 100 to 400 nM. Same read-out and setting: to `CNC(=O)c1ccc(Nc2nc(OC3CCCC3)c3c(-c4ccc(F)cc4C)c[nH]c3n2)c(OC)c1` [Example 319, 4-(4-(cyclopentyloxy)-5-(4-fluoro-2-methylphenyl)-7H-pyrrolo[2,3-d]pyrimidin-2-ylamino)-3-methoxy-N-methylbenzamide] belongs 1000 to 10000 nM; to `CNC(=O)c1ccc(-c2c[nH]c3nc(Nc4ccc(C(=O)NC5CN(C)C5)cc4OC)nc(OC4CCOCC4)c23)cc1` [Example 366, 3-methoxy-N-(1-methylazetidin-3-yl)-4-(5-(4-(methylcarbamoyl)phenyl)-4-(tetrahydro-2H-pyran-4-yloxy)-7H-pyrrolo[2,3-d]pyrimidin-2-ylamino)benzamide], 100 to 400 nM.
